Assay results published in patent publication US20240343681A1, “MOLECULES HAVING PESTICIDAL UTILITY AND INTERMEDIATES AND PROCESSES RELATED THERETO” (priority 2021, published 2024).

What was measured:
[1] = system: Beet Armyworm (Spodoptera exigua, LAPHEG) second instar larva; assay: Bioassay on beet armyworm (BAW), 128-well diet tray assay; type: in vivo; conditions: 50 μg/cm^2 on artificial diet, 25° C., five days
Method in brief: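 Test molecule in 90:10 acetone–water applied at 50 μg/cm^2 onto 1 mL artificial diet and dried; one second-instar larva per well, eight wells. Held 5 days at 25 °C, 14:10 light–dark; percent mortality averaged over the eight wells.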

[2] = system: Yellow Fever Mosquito (Aedes aegypti, AEDSAE) larvae; assay: Bioassay on yellow fever mosquito (YFM), 96-well plate larval assay; type: in vivo; conditions: 4000 ppm (master plate solution), about 1 day-old larvae, 3 days
Method: Example B: Bioassays on Yellow Fever Mosquito (Aedes aegypti, AEDSAE) (“YFM”)
Master plates containing 400 μg of a molecule dissolved in 100 μL of dimethyl sulfoxide (DMSO) (equivalent to a 4000 ppm solution) are used. A master plate of assembled molecules contains 15 μL per well. To this plate, 135 μL of a 90:10 water/acetone mixture is added to each well. A robot (Biomek® NXP Laboratory Automation Workstation) is programmed to dispense 15 μL aspirations from the master plate into an empty 96-well shallow plate (“daughter” plate). There are 6 reps (“daughter” plates) created per master. The created “daughter” plates are then immediately infested with YFM larvae.
The day before plates are to be treated, mosquito eggs are placed in Millipore water containing liver powder to begin hatching (4 g into 400 mL). After the “daughter” plates are created using the robot, they are infested with 220 μL of the liver powder/larval mosquito mixture (about 1 day-old larvae). After plates are infested with mosquito larvae, a non-evaporative lid is used to cover the plate to reduce drying. Plates are held at room temperature for 3 days prior to grading. After 3 days, each well is observed and scored based on mortality.

## O=C(Nc1ccc(Cl)c(NC(=O)C(F)(F)Cl)c1)[C@H]1[C@H](c2cc(Cl)cc(Cl)c2)C1(Cl)Cl (racemic) [F54, trans-rac-2,2-Dichloro-N-(4-chloro-3-(2-chloro-2,2-difluoroacetamido)phenyl)-3-(3,5-dichlorophenyl)cyclopropane-1-carboxamide]
[1]
  activity against BAW (percent mortality, averaged over eight wells): exhibited activity
[2]
  activity against YFM (scored based on mortality): exhibited activity

## Cc1cc(C#N)ccc1C(=O)Nc1cc(NC(=O)[C@H]2[C@H](c3cc(Cl)cc(Cl)c3)C2(Cl)Cl)ccc1F (racemic) [F60, trans-rac-4-Cyano-N-(5-(2,2-dichloro-3-(3,5-dichlorophenyl)cyclopropane-1-carboxamido)-2-fluorophenyl)-2-methylbenzamide]
[1]
  activity against BAW (percent mortality, averaged over eight wells): exhibited activity
[2]
  activity against YFM (scored based on mortality): exhibited activity

## Cc1c(C(=O)Nc2cc(NC(=O)[C@H]3[C@H](c4ccc(F)c(C(F)(F)F)c4)C3(Cl)Cl)ccc2Cl)ccc(NC(=O)COCC(F)(F)F)c1F (racemic) [F116, trans-rac-N-(2-Chloro-5-(2,2-dichloro-3-(4-fluoro-3-(trifluoromethyl)phenyl)cyclopropane-1-carboxamido)phenyl)-3-fluoro-2-methyl-4-(2-(2,2,2-trifluoroethoxy)acetamido)benzamide]
[1]
  activity against BAW (percent mortality, averaged over eight wells): exhibited activity
[2]
  activity against YFM (scored based on mortality): exhibited activity

## O=C(Cc1ccccc1)Nc1cc(NC(=O)[C@H]2[C@H](c3cc(Cl)cc(Cl)c3)C2(Cl)Cl)ccc1Cl (racemic) [F48, trans-rac-2,2-Dichloro-N-(4-chloro-3-(2-phenylacetamido)phenyl)-3-(3,5-dichlorophenyl)cyclopropane-1-carboxamide]
[1]
  activity against BAW (percent mortality, averaged over eight wells): exhibited activity
[2]
  activity against YFM (scored based on mortality): exhibited activity

## COCC(=O)Nc1ccc(C(=O)Nc2cc(NC(=O)[C@H]3[C@H](c4ccc(F)c(C(F)(F)F)c4)C3(Cl)Cl)ccc2Cl)c(C)c1F (racemic) [F115, trans-rac-N-(2-Chloro-5-(2,2-dichloro-3-(4-fluoro-3-(trifluoromethyl)phenyl)cyclopropane-1-carboxamido)phenyl)-3-fluoro-4-(2-methoxyacetamido)-2-methylbenzamide]
[1]
  activity against BAW (percent mortality, averaged over eight wells): exhibited activity
[2]
  activity against YFM (scored based on mortality): exhibited activity

## O=C(Nc1cc(NC(=O)[C@H]2[C@H](c3cc(Cl)cc(Cl)c3)C2(Cl)Cl)ccc1Cl)c1c(F)cccc1F (racemic) [F25, trans-rac-N-(2-Chloro-5-(2,2-dichloro-3-(3,5-dichlorophenyl)cyclopropane-1-carboxamido)phenyl)-2,6-difluorobenzamide]
[1]
  activity against BAW (percent mortality, averaged over eight wells): exhibited activity
[2]
  activity against YFM (scored based on mortality): exhibited activity

## O=C(Nc1cc(NC(=O)[C@H]2[C@H](c3ccc(F)c(C(F)(F)F)c3)C2(Cl)Cl)ccc1Cl)c1cc(F)cc(F)c1 [F100, N-(2-Chloro-5-((1R,3R)-2,2-dichloro-3-(4-fluoro-3-(trifluoromethyl)phenyl)cyclopropane-1-carboxamido)phenyl)-3,5-difluorobenzamide]
[1]
  activity against BAW (percent mortality, averaged over eight wells): exhibited activity
[2]
  activity against YFM (scored based on mortality): exhibited activity

## O=C(Nc1cc(NC(=O)[C@H]2[C@H](c3ccc(F)c(C(F)(F)F)c3)C2(Cl)Cl)ccc1Cl)c1cnc(F)c(F)c1 [F109, N-(2-Chloro-5-((1R,3R)-2,2-dichloro-3-(4-fluoro-3-(trifluoromethyl)phenyl)cyclopropane-1-carboxamido)phenyl)-5,6-difluoronicotinamide]
[1]
  activity against BAW (percent mortality, averaged over eight wells): exhibited activity
[2]
  activity against YFM (scored based on mortality): exhibited activity

## O=C(Nc1c(F)ccc(NC(=O)[C@H]2[C@H](c3cc(Cl)c(Cl)c(Cl)c3)C2(Cl)Cl)c1F)c1ccc(F)cc1F [F10, N-(3-((1R,3R)-2,2-dichloro-3-(3,4,5-trichlorophenyl)cyclopropane-1-carboxamido)-2,6-difluorophenyl)-2,4-difluorobenzamide]
[1]
  activity against BAW (percent mortality, averaged over eight wells): exhibited activity
[2]
  activity against YFM (scored based on mortality): exhibited activity

## CC(=O)Nc1ccc(C(=O)Nc2cc(NC(=O)[C@H]3[C@H](c4ccc(F)c(C(F)(F)F)c4)C3(Cl)Cl)ccc2Cl)c(F)c1 (racemic) [F117, trans-rac-4-Acetamido-N-(2-chloro-5-(2,2-dichloro-3-(4-fluoro-3-(trifluoromethyl)phenyl)cyclopropane-1-carboxamido)phenyl)-2-fluorobenzamide]
[1]
  activity against BAW (percent mortality, averaged over eight wells): exhibited activity
[2]
  activity against YFM (scored based on mortality): exhibited activity

## O=C(COCC(F)(F)F)Nc1c(F)ccc(NC(=O)[C@H]2[C@H](c3ccc(F)c(C(F)(F)F)c3)C2(Cl)Cl)c1F (racemic) [F95, trans-rac-2,2-Dichloro-N-(2,4-difluoro-3-(2-(2,2,2-trifluoroethoxy)acetamido)phenyl)-3-(4-fluoro-3-(trifluoromethyl)phenyl)cyclopropane-1-carboxamide]
[1]
  activity against BAW (percent mortality, averaged over eight wells): exhibited activity
[2]
  activity against YFM (scored based on mortality): exhibited activity

## COCC(=O)Nc1ccc(C(=O)Nc2cc(NC(=O)[C@H]3[C@H](c4ccc(F)c(C(F)(F)F)c4)C3(Cl)Cl)ccc2Cl)c(F)c1 (racemic) [F118, trans-rac-N-(2-Chloro-5-(2,2-dichloro-3-(4-fluoro-3-(trifluoromethyl)phenyl)cyclopropane-1-carboxamido)phenyl)-2-fluoro-4-(2-methoxyacetamido)benzamide]
[1]
  activity against BAW (percent mortality, averaged over eight wells): exhibited activity
[2]
  activity against YFM (scored based on mortality): exhibited activity

## O=C(Nc1cc(NC(=O)[C@H]2[C@H](c3cc(Cl)cc(Cl)c3)C2(Cl)Cl)ccc1Cl)c1cccc(F)c1F (racemic) [F68, trans-rac-N-(2-Chloro-5-(2,2-dichloro-3-(3,5-dichlorophenyl)cyclopropane-1-carboxamido)phenyl)-2,3-difluorobenzamide]
[1]
  activity against BAW (percent mortality, averaged over eight wells): exhibited activity
[2]
  activity against YFM (scored based on mortality): exhibited activity

## N#Cc1ccc(C(=O)Nc2cc(NC(=O)[C@H]3[C@H](c4cc(Cl)cc(Cl)c4)C3(Cl)Cl)ccc2Cl)c(F)c1 (racemic) [F71, trans-rac-N-(2-Chloro-5-(2,2-dichloro-3-(3,5-dichlorophenyl)cyclopropane-1-carboxamido)phenyl)-4-cyano-2-fluorobenzamide]
[1]
  activity against BAW (percent mortality, averaged over eight wells): exhibited activity
[2]
  activity against YFM (scored based on mortality): exhibited activity

## CCCC(=O)Nc1cccc(NC(=O)[C@H]2[C@H](c3cc(Cl)cc(Cl)c3)C2(Cl)Cl)c1F [F20, (1R,3R)—N-(3-Butyramido-2-fluorophenyl)-2,2-dichloro-3-(3,5-dichlorophenyl)cyclopropane-1-carboxamide]
[1]
  activity against BAW (percent mortality, averaged over eight wells): exhibited activity
[2]
  activity against YFM (scored based on mortality): exhibited activity

## O=C(CN1CCOCC1)Nc1cc(NC(=O)[C@H]2[C@H](c3cc(Cl)cc(Cl)c3)C2(Cl)Cl)ccc1Cl (racemic) [F50, trans-rac-2,2-Dichloro-N-(4-chloro-3-(2-morpholinoacetamido)phenyl)-3-(3,5-dichlorophenyl)cyclopropane-1-carboxamide]
[1]
  activity against BAW (percent mortality, averaged over eight wells): exhibited activity
[2]
  activity against YFM (scored based on mortality): exhibited activity

## CCOC(C)C(=O)Nc1cc(NC(=O)C2C(c3cc(Cl)cc(Cl)c3)C2(Cl)Cl)ccc1Cl (racemic) [F40, trans-rac-2,2-dichloro-N-(4-chloro-3-(2-ethoxypropanamido)phenyl)-3-(3,5-dichlorophenyl)cyclopropane-1-carboxamide]
[1]
  activity against BAW (percent mortality, averaged over eight wells): exhibited activity
[2]
  activity against YFM (scored based on mortality): exhibited activity

## N#CCC(=O)Nc1cc(NC(=O)[C@H]2[C@H](c3cc(Cl)cc(Cl)c3)C2(Cl)Cl)ccc1Cl (racemic) [F42, trans-rac-2,2-Dichloro-N-(4-chloro-3-(2-cyanoacetamido)phenyl)-3-(3,5-dichlorophenyl)cyclopropanecarboxamide]
[1]
  activity against BAW (percent mortality, averaged over eight wells): exhibited activity
[2]
  activity against YFM (scored based on mortality): exhibited activity

## O=C(Nc1cc(NC(=O)[C@H]2[C@H](c3cc(Cl)cc(Cl)c3)C2(Cl)Cl)ccc1Cl)c1ncc(F)cc1F [F106, N-(2-Chloro-5-((1R,3R)-2,2-dichloro-3-(3,5-dichlorophenyl)cyclopropane-1-carboxamido)phenyl)-3,5-difluoropicolinamide]
[1]
  activity against BAW (percent mortality, averaged over eight wells): exhibited activity
[2]
  activity against YFM (scored based on mortality): exhibited activity
